Assay results taken from PMC9186362, “Design and biological evaluation of substituted 5,7-dihydro-6H-indolo[2,3-c]quinolin-6-one as novel selective Haspin inhibitors” (Journal of Enzyme Inhibition and Medicinal Chemistry, 2022).

Assays:
Assay in all cases: LanthaScreen Binding - Eu-anti-GST
Settings in all cases: read-out: Percentage of inhibition
[1] = target: ACVR2B (Homo sapiens, UniProt Q13705)
Description: (§1) We further evaluated the selectivity profile of compound 55 on a larger panel of kinases (SelectScreen Whole Panel, Life Technologies). The inhibition profile of 55, evaluated at 1 μM, is depicted on a dendrogram on Figure 3 where kinases inhibited by a minimum of 80% are shown. A full list of the kinases tested is shown on Table S1 in supplementary information.

[2] = target: T1, ACVRL1 (ALK1) (Homo sapiens, UniProt P37023)
T1 construct: purchased Life Technologies (SelectScreen service)
T1 sequence (P37023 22-503): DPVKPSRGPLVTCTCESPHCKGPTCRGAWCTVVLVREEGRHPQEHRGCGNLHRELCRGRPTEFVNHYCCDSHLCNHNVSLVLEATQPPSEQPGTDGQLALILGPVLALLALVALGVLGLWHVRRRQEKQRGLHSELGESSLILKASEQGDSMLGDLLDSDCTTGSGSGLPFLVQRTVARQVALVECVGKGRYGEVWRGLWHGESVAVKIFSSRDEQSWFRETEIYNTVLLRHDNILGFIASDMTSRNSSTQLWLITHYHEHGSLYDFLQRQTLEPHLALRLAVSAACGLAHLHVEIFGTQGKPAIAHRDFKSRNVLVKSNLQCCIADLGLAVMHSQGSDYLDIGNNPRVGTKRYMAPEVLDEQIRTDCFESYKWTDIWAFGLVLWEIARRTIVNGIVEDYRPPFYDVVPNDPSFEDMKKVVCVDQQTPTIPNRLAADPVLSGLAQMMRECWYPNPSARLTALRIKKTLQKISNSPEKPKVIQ
Description: as §1

[3] = target: T2, ALK F1174L (Homo sapiens, UniProt Q9UM73, F1174L)
T2 construct: purchased Life Technologies
Description: as §1

[4] = target: BMPR1A (ALK3) (Homo sapiens, UniProt P36894)
Description: as §1

[5] = target: T3, BRAF V599E (Homo sapiens, UniProt P15056, V600E)
T3 construct: purchased Life Technologies
Description: as §1

[6] = target: T4, CAMKK2 (CaMKK beta) (Homo sapiens, UniProt Q96RR4)
T4 construct: purchased Life Technologies (SelectScreen Whole Panel service)
Description: as §1

[7] = target: T5, CDC7/DBF4 (Homo sapiens, UniProt O00311)
T5 construct: purchased Life Technologies (SelectScreen service)
Description: as §1

[8] = target: T6, CDK16 (PCTK1)/cyclin Y (Homo sapiens, UniProt Q00536)
T6 construct: purchased Life Technologies
Description: as §1

[9] = target: CDK2/cyclin E1 (Homo sapiens, UniProt P24941)
Description: as §1

[10] = target: CDK5 (Inactive) (Homo sapiens, UniProt Q00535)
CDK5 (Inactive), sequence (Q00535 whole entry): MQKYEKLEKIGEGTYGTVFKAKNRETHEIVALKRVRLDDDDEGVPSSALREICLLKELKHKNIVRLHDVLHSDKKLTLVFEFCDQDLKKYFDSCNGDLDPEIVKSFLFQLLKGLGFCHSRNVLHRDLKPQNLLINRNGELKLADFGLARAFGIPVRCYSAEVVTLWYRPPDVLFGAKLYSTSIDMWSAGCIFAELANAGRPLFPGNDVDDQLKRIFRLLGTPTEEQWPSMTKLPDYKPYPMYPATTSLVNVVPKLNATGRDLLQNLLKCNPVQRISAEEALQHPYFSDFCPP
Description: as §1

[11] = target: T7, DDR1 (Homo sapiens, UniProt Q08345)
T7 construct: purchased Life Technologies
Description: as §1

[12] = target: DMPK (Homo sapiens, UniProt Q09013)
DMPK, sequence (Q09013 whole entry): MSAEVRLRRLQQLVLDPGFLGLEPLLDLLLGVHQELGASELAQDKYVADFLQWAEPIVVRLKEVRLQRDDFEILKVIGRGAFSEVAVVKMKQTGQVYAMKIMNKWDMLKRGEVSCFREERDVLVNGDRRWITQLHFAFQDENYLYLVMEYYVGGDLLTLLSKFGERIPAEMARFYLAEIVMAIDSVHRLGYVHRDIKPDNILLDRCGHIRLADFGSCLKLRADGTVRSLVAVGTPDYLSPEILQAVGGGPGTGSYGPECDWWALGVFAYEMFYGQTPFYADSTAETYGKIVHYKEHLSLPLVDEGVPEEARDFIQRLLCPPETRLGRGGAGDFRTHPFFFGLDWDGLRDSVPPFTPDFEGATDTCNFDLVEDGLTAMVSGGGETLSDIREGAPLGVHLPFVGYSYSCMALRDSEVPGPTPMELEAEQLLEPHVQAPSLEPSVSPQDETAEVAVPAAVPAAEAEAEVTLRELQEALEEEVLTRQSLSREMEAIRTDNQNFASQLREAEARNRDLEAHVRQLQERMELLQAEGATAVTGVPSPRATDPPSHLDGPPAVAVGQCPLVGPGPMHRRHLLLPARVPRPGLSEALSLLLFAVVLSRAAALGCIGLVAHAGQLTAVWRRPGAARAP
Description: as §1

[13] = target: T8, EGFR (ErbB1) d747-749 A750P (Homo sapiens, UniProt P00533, A750P/DEL747-749)
T8 construct: purchased Life Technologies
Description: as §1

[14] = target: T9, FGFR3 G697C (Homo sapiens, UniProt P22607, G697C)
T9 construct: purchased Life Technologies
Description: as §1

[15] = target: FGFR3 K650M (Homo sapiens, UniProt P22607, K650M)
Description: as §1

[16] = target: T10, FYN A (Homo sapiens, UniProt P06241)
T10 construct: purchased Life Technologies (SelectScreen Whole Panel service)
Description: as §1

[17] = target: T11, GRK1 (Homo sapiens, UniProt Q15835)
T11 construct: purchased Life Technologies (SelectScreen Whole Panel)
Description: as §1

[18] = target: T12, IRAK3 (Homo sapiens, UniProt Q9Y616)
T12 construct: purchased Life Technologies (SelectScreen service)
Description: as §1

[19] = target: T13, KIT D820E (Homo sapiens, UniProt P10721, D820E)
T13 construct: purchased Life Technologies (SelectScreen service)
T13 sequence (P10721 26-976 D820E): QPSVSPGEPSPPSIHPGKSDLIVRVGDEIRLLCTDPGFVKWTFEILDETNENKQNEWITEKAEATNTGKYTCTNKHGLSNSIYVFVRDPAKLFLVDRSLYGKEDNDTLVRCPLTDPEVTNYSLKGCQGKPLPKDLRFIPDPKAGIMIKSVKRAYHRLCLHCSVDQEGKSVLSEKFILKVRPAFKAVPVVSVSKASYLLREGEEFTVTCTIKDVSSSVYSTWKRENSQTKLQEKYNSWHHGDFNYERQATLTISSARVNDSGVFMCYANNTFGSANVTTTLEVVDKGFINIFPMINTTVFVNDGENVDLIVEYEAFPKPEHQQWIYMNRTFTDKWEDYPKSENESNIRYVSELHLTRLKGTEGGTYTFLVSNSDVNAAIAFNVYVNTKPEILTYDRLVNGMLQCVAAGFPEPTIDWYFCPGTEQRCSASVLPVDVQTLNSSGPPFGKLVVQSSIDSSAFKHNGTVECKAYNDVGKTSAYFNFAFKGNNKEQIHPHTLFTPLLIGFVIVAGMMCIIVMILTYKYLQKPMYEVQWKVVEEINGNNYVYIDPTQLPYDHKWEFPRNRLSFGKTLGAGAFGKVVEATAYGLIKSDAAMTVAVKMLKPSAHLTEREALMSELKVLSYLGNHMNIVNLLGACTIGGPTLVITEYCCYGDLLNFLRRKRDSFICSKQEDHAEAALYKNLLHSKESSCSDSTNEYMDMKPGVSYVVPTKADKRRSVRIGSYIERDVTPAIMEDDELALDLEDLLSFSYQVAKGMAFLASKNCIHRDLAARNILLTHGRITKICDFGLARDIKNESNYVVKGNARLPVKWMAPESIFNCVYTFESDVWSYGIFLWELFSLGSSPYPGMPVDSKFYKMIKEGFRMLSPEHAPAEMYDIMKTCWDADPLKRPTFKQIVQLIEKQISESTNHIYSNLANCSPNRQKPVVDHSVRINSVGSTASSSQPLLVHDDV
Description: as §1

[20] = target: T14, LIMK2 (Homo sapiens, UniProt P53671)
T14 construct: purchased Life Technologies (SelectScreen Whole Panel service)
Description: as §1

[21] = target: T15, MAP2K4 (MEK4) (Homo sapiens, UniProt P45985)
T15 construct: purchased Life Technologies (SelectScreen service)
Description: as §1

[22] = target: T16, MAP2K5 (MEK5) (Homo sapiens, UniProt Q13163)
T16 construct: purchased Life Technologies (SelectScreen service)
T16 sequence (Q13163 whole entry): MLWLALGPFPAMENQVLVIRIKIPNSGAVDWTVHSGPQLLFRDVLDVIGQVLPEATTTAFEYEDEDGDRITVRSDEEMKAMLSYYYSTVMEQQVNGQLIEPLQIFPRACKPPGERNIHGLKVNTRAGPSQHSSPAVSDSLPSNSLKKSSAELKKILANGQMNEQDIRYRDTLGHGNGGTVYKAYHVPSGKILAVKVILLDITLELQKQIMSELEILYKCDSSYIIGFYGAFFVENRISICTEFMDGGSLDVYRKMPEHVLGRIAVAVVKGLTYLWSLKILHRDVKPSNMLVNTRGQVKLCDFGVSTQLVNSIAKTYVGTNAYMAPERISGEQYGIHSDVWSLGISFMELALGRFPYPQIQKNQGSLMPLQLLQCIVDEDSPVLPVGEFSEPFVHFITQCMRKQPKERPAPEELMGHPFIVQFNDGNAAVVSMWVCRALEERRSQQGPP
Description: as §1

[23] = target: T17, MAP3K11 (MLK3) (Homo sapiens, UniProt Q16584)
T17 construct: purchased Life Technologies
Description: as §1

[24] = target: T18, MAP3K14 (NIK) (Homo sapiens, UniProt Q99558)
T18 construct: purchased Life Technologies (SelectScreen service)
Description: as §1

[25] = target: T19, MAP3K3 (MEKK3) (Homo sapiens, UniProt Q99759)
T19 construct: purchased Life Technologies (SelectScreen service)
Description: as §1

[26] = target: T20, MAP3K5 (ASK1) (Homo sapiens, UniProt Q99683)
T20 construct: purchased Life Technologies
Description: as §1

[27] = target: T21, MAP4K1 (HPK1) (Homo sapiens, UniProt Q92918)
T21 construct: purchased Life Technologies (SelectScreen service)
Description: as §1

[28] = target: T22, MERTK (cMER) A708S (Homo sapiens, UniProt Q12866, A708S)
T22 construct: purchased Life Technologies
Description: as §1

[29] = target: MET D1228H (Homo sapiens, UniProt P08581, D1228H)
Description: as §1

[30] = target: MLCK (MLCK2) (Homo sapiens, UniProt Q32MK0)
Description: as §1

[31] = target: T23, MYO3A (MYO3 alpha) (Homo sapiens, UniProt Q8NEV4)
T23 construct: purchased Life Technologies
Description: as §1

[32] = target: T24, NUAK2 (Homo sapiens, UniProt Q9H093)
T24 construct: purchased Life Technologies (SelectScreen Whole Panel)
T24 sequence (Q9H093 whole entry): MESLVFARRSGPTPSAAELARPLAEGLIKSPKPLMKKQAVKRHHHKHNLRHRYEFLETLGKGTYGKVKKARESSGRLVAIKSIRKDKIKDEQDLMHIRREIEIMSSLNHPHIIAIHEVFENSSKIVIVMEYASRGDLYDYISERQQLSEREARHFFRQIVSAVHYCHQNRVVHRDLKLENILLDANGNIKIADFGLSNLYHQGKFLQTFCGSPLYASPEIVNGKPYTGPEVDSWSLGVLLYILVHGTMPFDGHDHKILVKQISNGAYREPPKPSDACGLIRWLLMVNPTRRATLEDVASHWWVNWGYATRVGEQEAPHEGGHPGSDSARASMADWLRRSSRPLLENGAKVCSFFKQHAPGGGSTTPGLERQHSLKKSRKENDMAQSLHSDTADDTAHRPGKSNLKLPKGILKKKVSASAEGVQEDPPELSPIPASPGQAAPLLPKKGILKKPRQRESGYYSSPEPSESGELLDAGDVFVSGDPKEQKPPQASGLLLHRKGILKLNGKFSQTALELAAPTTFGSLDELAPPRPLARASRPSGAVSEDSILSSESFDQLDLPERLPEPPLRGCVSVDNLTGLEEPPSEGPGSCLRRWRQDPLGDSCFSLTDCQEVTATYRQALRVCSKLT
Description: as §1

[33] = target: T25, PKN2 (PRK2) (Homo sapiens, UniProt Q16513)
T25 construct: purchased Life Technologies
Description: as §1

[34] = target: T26, PRKACG (PRKAC gamma) (Homo sapiens, UniProt P22612)
T26 construct: purchased Life Technologies (SelectScreen Whole Panel service)
Description: as §1

[35] = target: T27, RET M918T (Homo sapiens, UniProt P07949, M918T)
T27 construct: purchased Life Technologies
Description: as §1

[36] = target: SIK3 (Homo sapiens, UniProt Q9Y2K2)
SIK3, sequence (Q9Y2K2 whole entry): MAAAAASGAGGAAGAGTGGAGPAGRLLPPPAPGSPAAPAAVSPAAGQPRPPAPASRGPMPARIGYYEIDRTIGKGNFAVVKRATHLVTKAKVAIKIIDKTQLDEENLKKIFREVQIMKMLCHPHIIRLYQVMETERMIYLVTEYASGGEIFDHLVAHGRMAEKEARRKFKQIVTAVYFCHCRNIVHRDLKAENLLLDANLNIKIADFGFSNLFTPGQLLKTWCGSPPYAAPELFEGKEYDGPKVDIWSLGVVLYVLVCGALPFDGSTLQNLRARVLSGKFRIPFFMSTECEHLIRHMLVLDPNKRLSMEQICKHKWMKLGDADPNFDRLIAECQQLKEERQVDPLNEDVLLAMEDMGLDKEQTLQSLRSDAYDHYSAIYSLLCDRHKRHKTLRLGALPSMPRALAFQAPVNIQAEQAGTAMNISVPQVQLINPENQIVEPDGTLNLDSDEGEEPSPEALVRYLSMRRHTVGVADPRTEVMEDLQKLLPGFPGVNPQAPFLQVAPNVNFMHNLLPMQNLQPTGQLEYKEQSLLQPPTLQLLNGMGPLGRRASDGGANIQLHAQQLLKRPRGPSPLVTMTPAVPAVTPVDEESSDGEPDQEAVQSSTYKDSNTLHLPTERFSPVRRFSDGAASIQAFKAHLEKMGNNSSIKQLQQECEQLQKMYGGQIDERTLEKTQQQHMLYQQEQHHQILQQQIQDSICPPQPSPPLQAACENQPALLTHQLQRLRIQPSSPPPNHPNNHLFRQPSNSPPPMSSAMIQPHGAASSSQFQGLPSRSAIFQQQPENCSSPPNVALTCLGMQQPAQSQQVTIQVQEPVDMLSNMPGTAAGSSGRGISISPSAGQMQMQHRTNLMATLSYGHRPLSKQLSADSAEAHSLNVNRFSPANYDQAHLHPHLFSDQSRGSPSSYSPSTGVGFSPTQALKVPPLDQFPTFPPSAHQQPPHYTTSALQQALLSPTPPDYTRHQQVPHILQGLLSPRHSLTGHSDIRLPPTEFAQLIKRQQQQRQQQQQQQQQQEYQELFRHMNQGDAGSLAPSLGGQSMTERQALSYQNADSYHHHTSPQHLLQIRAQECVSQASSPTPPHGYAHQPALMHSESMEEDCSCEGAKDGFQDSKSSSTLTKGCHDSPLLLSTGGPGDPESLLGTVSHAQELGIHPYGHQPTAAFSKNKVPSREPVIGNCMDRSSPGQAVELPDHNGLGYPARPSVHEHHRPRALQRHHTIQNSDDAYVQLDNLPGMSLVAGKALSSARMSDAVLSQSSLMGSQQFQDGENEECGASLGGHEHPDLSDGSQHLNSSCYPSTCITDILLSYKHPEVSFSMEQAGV
Description: as §1

[37] = target: T28, SLK (Homo sapiens, UniProt Q9H2G2)
T28 construct: purchased Life Technologies
Description: as §1

[38] = target: T29, TAOK3 (JIK) (Homo sapiens, UniProt Q9H2K8)
T29 construct: purchased Life Technologies (SelectScreen service)
Description: as §1

[39] = target: WNK2 (Homo sapiens, UniProt Q9Y3S1)
Description: as §1

COc1ccc2[nH]c3c(=O)[nH]c4ccc(O)cc4c3c2c1 [Compound 55, 2-Hydroxy-10-methoxy-5,7-dihydro-6H-indolo[2,3-c]quinolin-6-one]
inhibition at 1 µM [1]: 21% | inhibition at 1 µM [2]: 25% | inhibition at 1 µM [3]: 33% | inhibition at 1 µM [4]: 6% | inhibition at 1 µM [5]: 6% | inhibition at 1 µM [6]: 10% | inhibition at 1 µM [7]: 83% | inhibition at 1 µM [8]: 38% | inhibition at 1 µM [9]: 64% | inhibition at 1 µM [10]: 21% | inhibition at 1 µM [11]: 5% | inhibition at 1 µM [12]: 63% | inhibition at 1 µM [13]: 34% | inhibition at 1 µM [14]: 35% | inhibition at 1 µM [15]: 67% | inhibition at 1 µM [16]: 45% | inhibition at 1 µM [17]: 50% | inhibition at 1 µM [18]: 77% | inhibition at 1 µM [19]: 24% | inhibition at 1 µM [20]: 11% | inhibition at 1 µM [21]: 26% | inhibition at 1 µM [22]: 80% | inhibition at 1 µM [23]: 36% | inhibition at 1 µM [24]: 79% | inhibition at 1 µM [25]: 71% | inhibition at 1 µM [26]: 28% | inhibition at 1 µM [27]: 81% | inhibition at 1 µM [28]: 31% | inhibition at 1 µM [29]: 14% | inhibition at 1 µM [30]: 62% | inhibition at 1 µM [31]: 33% | inhibition at 1 µM [32]: 53% | inhibition at 1 µM [33]: 32% | inhibition at 1 µM [34]: 17% | inhibition at 1 µM [35]: 94% | inhibition at 1 µM [36]: 7% | inhibition at 1 µM [37]: 40% | inhibition at 1 µM [38]: 24% | inhibition at 1 µM [39]: 14%
